Measurements as given in patent publication US10689622B2, “Culture medium for proliferating stem cell, which contains sulfated compound” (AJINOMOTO CO., INC., priority 2012, dated 2020).

Columns and labels:
[1] = biological target: T1, bFGF (Homo sapiens, UniProt P09038); experiment: Evaluation of bFGF stabilization in ReproFF2 medium (ELISA); assay type: biochemical; details: 37° C. for 7 days
T1 construct: purchased Lonza (via TAKARA BIO INC.) Ser. No. 00/190,632
Description: (§1) A commercially available measurement kit (human bFGF ELISA kit, ELH-bFGF-001, Ray Biotech) was used for quantification of bFGF in the medium. The measurement procedures followed the protocol attached to the kit. The bFGF concentration of the serum-free medium was calculated from the analytical curve (conversion formula) drawn from the absorbance of an analytical curve standard solution. The evaluation criteria of Tables 5-8 are as follows:
(§2) A test compound was dissolved in phosphate buffered saline, and diluted 10-fold with a serum-free medium to adjust the concentration shown in Table 4 (test sample). The test sample was left standing in a tightly sealed Falcon tube at 37° C. for 7 days, and the bFGF concentration was quantified by ELISA measurement. A phosphate buffered saline without a test compound was diluted 10-fold with Essential 8 medium or ReproFF2 medium, and left standing at 37° C. or 4° C. for 7 days, and used as a control.
as §1, with “Table 13” for “Tables 5-8”
as §2, with “Table 12” for “Table 4”

[2] = test system: iPS cell 201B7 strain; experiment: iPS cell proliferation system (cell number); assay type: cell-based, human; details: matrigel, Essential-8 medium
Description: The cell proliferation effect of various test compounds was evaluated using artificial pluripotent stem cell (iPS cell). 201B7 strain purchased from iPS Academia Japan, Inc. was grown in a culture container coated with a basal lamina matrix (matrigel manufactured by Nippon Becton Dickinson Company, Ltd., or a fragment containing an active domain of laminin 511 purchased from OSAKA UNIVERSITY) (Becton, Dickinson and Company, Falcon culture petri dish or Falcon culture plate), contained in a feeder-free medium for human ES/iPS cell (ReproCELL Inc, ReproFF2).
In this medium were suspended iPS cells in colony state, and a 2.5- to 3.5-fold diluted amount of the original culture was plated on a 6-well culture plate coated with a basal lamina matrix (Nippon Becton Dickinson Company, Ltd., Falcon culture plate). […] After culturing for 6 to 12 days, the medium was removed, the cells were detached from the culture plate by a trypsin-EDTA (Sigma-Aldrich Ltd.) or TrypLE Select (Invitrogen) treatment and the cell number was measured. The cell number was measured by the method described in “Kaitei Saibou baiyou Nyuumon Note, page 77-83, 2010, YODOSHA CO., LTD.” which is incorporated herein by reference in its entirety.
When the cells were seeded in a dissociation state of the cells (single cell state), a test compound solution after filter sterilization was added to a medium containing Y-27632 (Nacalai Tesque) to a given concentration, and dispensed to a 6 well culture plate. Thereto were plated iPS cells suspended in a medium containing Y-27632 at 100,000 cells/well, and cultured for 6 to 8 days. On the next day of seeding, the medium was exchanged to a medium (without Y-27632) added with the test compound alone. When medium exchange was necessary, the medium was exchanged every 2 or 3 days. […] After culturing for 6 to 8 days, the cell number was measured by a method similar to that mentioned above.
When the evaluation was performed in Essential 8 medium (Invitrogen), which is a different feeder-free medium for iPS cell, iPS cells cultured in a medium obtained by adding human serum albumin (Sigma-Aldrich Co. LLC) to Essential 8 medium were used.

[3] = biological target: T1, bFGF; experiment: Evaluation of bFGF stabilization in Lonza serum-free medium (ELISA); assay type: biochemical
Method in brief: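 Compound in PBS diluted 10-fold into serum-free medium and held sealed at 37 °C for 7 days (some sets 3 days). Remaining bFGF quantified by human bFGF sandwich ELISA against a standard curve. Controls were compound-free PBS-medium kept at 37 °C or 4 °C for the same period.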

[4] = test system: Human bone marrow-derived mesenchymal stem cells; experiment: Mesenchymal stem cell proliferation system (cell number by DNA quantification); details: growth of mesenchymal stem cell, control ratio
Description: Human bone marrow-derived mesenchymal stem cells (Lonza, Human Mesenchymal Stem Cell) cultured in mesenchymal stem cell-dedicated medium (Lonza, MSCGM) or Dulbecco's Modified Eagle Medium (Invitrogen, GIBCO D-MEM) containing inactivated fetal bovine serum (Invitrogen, GIBCO FBS) and penicillin-streptomycin (Sigma-Aldrich Co. LLC.) were cultured in exchanged Lonza serum-free medium. The mesenchymal stem cells thus-acclimated to serum-free culture were suspended in Lonza serum-free medium, and seeded on a 24 well culture plate (Nippon Becton Dickinson Company, Ltd., Falcon culture plate) at 20,000 cells/well or a 6 well culture plate (Nippon Becton Dickinson Company, Ltd., Falcon culture plate) at 50,000 cells/well. Then, a test compound solution after filter sterilization and adjustment to a given concentration was added, and the cells were cultured in an incubator (Thermo Scientific, Forma incubator) under the 5% CO2/37° C. conditions for 7 to 8 days. When the medium exchange was necessary, the medium was exchanged 2 to 3 days after the seeding. In this case, the test compound solution was also added again in the same manner as in seeding. In this case, various compound solutions were added again in the same manner as in seeding. After culturing for 7 to 8 days, the medium was removed and DNA quantification was performed. As a control, the cells were cultured in the same manner in a medium without a test compound and added with phosphate buffered saline.
The medium in the 24 well culture plate was removed, and the cells were washed with phosphate buffered saline. The sodium lauryl sulfate solution (500 μl/well) was added, and the mixture was left standing at 37° C. for 4 hours. The sodium lauryl sulfate solution (1.0 ml) was also added to a cell pellet with a known cell number, and the mixture was left standing at 37° C. for 4 hours. As for the cells in the 24 well culture plate, a part (50 μl) of the lysate was transferred to a 96 well black microplate. The solution used for treating the cell pellets was successively diluted with sodium lauryl sulfate solution and used as solutions for drawing an analytical curve. Also, a part (50 μl) of the solutions for drawing an analytical curve was each transferred to the 96 well black microplate. […] The fluorescence was measured by a microplate reader (excitation wavelength: 355 nm, measurement wavelength: 460 nm) within 5 minutes from the addition. The cell number of the 24 well cell culture plate was calculated from the analytical curve drawn (conversion formula). The evaluation criteria were as follows.

T1 sequence (P09038 143-288): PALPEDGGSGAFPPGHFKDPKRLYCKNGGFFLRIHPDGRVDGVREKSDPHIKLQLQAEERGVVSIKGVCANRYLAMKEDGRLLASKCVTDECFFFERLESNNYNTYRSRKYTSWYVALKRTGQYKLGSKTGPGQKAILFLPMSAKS

O=S(=O)([O-])OC[C@H]1O[C@@](COS(=O)(=O)[O-])(O[C@H]2O[C@H](COS(=O)(=O)[O-])[C@@H](OS(=O)(=O)[O-])[C@H](OS(=O)(=O)[O-])[C@H]2OS(=O)(=O)[O-])[C@@H](OS(=O)(=O)[O-])[C@@H]1OS(=O)(=O)[O-].[K+].[K+].[K+].[K+].[K+].[K+].[K+].[K+] [sucrose 8SO3K]
concentration showing a suppressive effect on a decrease in the bFGF concentration of the medium [1]: not less than 250 pg/ml | bFGF concentration relative to that of 4° C. control (ELISA) ([1]; test compound 250 pg/ml): − (bFGF concentration was not less than 10% and less than 30% relative to that of 4 °C control) | bFGF concentration relative to that of 4° C. control (ELISA) ([1]; test compound 25 ng/ml): +++ (bFGF concentration was not less than 70% relative to that of 4 °C control) | bFGF concentration relative to that of 4° C. control (ELISA) ([1]; test compound 250 ng/ml): +++ (bFGF concentration was not less than 70% relative to that of 4 °C control) | bFGF concentration relative to that of 4° C. control (ELISA) ([1]; test compound 25 μg/ml): ++ (bFGF concentration was not less than 50% and less than 70% relative to that of 4 °C control) | bFGF concentration relative to that of 4° C. control (ELISA) ([1]; test compound 250 μg/ml): +++ (bFGF concentration was not less than 70% relative to that of 4 °C control) | number of cells relative to control ([2]; test compound 25 ng/ml): ◯ (not less than 100%: ◯) | number of cells relative to control ([2]; test compound 250 ng/ml): ◯ (not less than 100%: ◯) | concentration showing a suppressive effect on a decrease in the bFGF concentration in the medium ([3]; Lonza serum-free medium, 37° C. for 3 days): not less than 250 ng/ml | bFGF concentration relative to that of 4° C. control (ELISA) ([3]; Lonza serum-free medium, 37° C. for 3 days, test compound 25 ng/ml): x (bFGF concentration was less than 10% relative to that of 4 °C control) | bFGF concentration relative to that of 4° C. control (ELISA) ([3]; Lonza serum-free medium, 37° C. for 3 days, test compound 250 ng/ml): − (bFGF concentration was not less than 10% and less than 30% relative to that of 4 °C control) | bFGF concentration relative to that of 4° C. control (ELISA) ([3]; Lonza serum-free medium, 37° C. for 3 days, test compound 25 μg/ml): +++ (bFGF concentration was not less than 70% relative to that of 4 °C control) | bFGF concentration relative to that of 4° C. control (ELISA) ([3]; Lonza serum-free medium, 37° C. for 3 days, test compound 250 μg/ml): +++ (bFGF concentration was not less than 70% relative to that of 4 °C control) | bFGF concentration relative to that of 4° C. control (ELISA) ([3]; Lonza serum-free medium, 37° C. for 7 days, test compound 25 ng/ml): x (bFGF concentration was less than 10% relative to that of 4 °C control) | bFGF concentration relative to that of 4° C. control (ELISA) ([3]; Lonza serum-free medium, 37° C. for 7 days, test compound 250 ng/ml): x (bFGF concentration was less than 10% relative to that of 4 °C control) | bFGF concentration relative to that of 4° C. control (ELISA) ([3]; Lonza serum-free medium, 37° C. for 7 days, test compound 25 μg/ml): − (bFGF concentration was not less than 10% and less than 30% relative to that of 4 °C control) | bFGF concentration relative to that of 4° C. control (ELISA) ([3]; Lonza serum-free medium, 37° C. for 7 days, test compound 250 μg/ml): + (bFGF concentration was not less than 30% and less than 50% relative to that of 4 °C control) | effectiveness ELISA ([3]; effectiveness in ELISA evaluation of mesenchymal stem cells (medium), 4° C. control ratio): + (+ 30%<) | effectiveness cells [4]: ⊚ (⊚ not less than 120%)
